Reference: PubChem BioAssay (NCI)
Several values for one entry are separate records, joined by “and”; a condition that tells them apart may be missing. Identical values can stand only once.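 1) Cells in 96-well plates. 2) Compound, 48 h, 5 concentrations. 3) Linear interpolation between surrounding doses. 4) Unreached endpoint = highest concentration. Here, GI50 denotes the concentration required for 50% inhibition of growth. Definition used: TGI = concentration required for complete inhibition of growth.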

What was measured:
Assay in all cases: inhibition of tumour cell growth, NCI panel, 48 h
[1] = system: COLO 205 colon
[2] = system: RXF 393 renal
[3] = system: MOLT-4 leukemia
[4] = system: SNB-19 CNS
[5] = system: NCI-H226 lung
[6] = system: HOP-62 NSCLC
[7] = system: IGROV1 ovarian
[8] = system: U251 CNS
[9] = system: BT-549 breast
[10] = system: HCT-15 colon
[11] = system: SK-MEL-5 melanoma
[12] = system: K-562 leukemia
[13] = system: HCC-2998 colon
[14] = system: SNB-75 CNS
[15] = system: KM12 colon
[16] = system: HS 578T breast
[17] = system: ACHN renal
[18] = system: SK-MEL-28 melanoma
[19] = system: UACC-257 melanoma
[20] = system: UACC-62 melanoma
[21] = system: LOX IMVI melanoma
[22] = system: OVCAR-3 ovarian
[23] = system: A498 renal
[24] = system: PC-3 prostate
[25] = system: MDA-MB-435
[26] = system: T-47D breast
[27] = system: SF-539 CNS
[28] = system: SF-295 CNS
[29] = system: HL-60(TB) leukemia

Q: For N#Cc1ccc(/C=C/C(=O)c2ccccc2)cc1, which GI50 [1] is on record?
A: Its GI50 is 6.34 µM and 14.3 µM.

Q: And the TGI [1]?
A: Its TGI is 16.3 µM and 27.9 µM.

Q: What about the GI50 [2] of the same molecule?
A: The GI50 was 7.15 µM and 5.93 µM.

Q: What about the TGI [2] of the same molecule?
A: The TGI was 19.3 µM and 18.2 µM.

Q: What about the GI50 [3] of the same molecule?
A: The GI50 was 9.4 µM and 6.4 µM.

Q: And the TGI [3]?
A: Its TGI is 53.3 µM and > 38.9 µM.

Q: And the GI50 [4]?
A: Its GI50 is 14.4 µM and 12.5 µM.

Q: And the TGI [4]?
A: Its TGI is 27.4 µM and 25.1 µM.

Q: And the GI50 [5]?
A: Its GI50 is 27.2 µM and 15.3 µM.

Q: What about the TGI [5] of the same molecule?
A: Its TGI is > 68.8 µM and 31 µM.

Q: What about the GI50 [6] of the same molecule?
A: The GI50 was 22 µM and 18.4 µM.

Q: And the TGI [6]?
A: Its TGI is > 54.9 µM and 33.8 µM.

Q: What about the GI50 [7] of the same molecule?
A: Its GI50 is 4.18 µM and 2.27 µM.

Q: And the TGI [7]?
A: The TGI was 14.6 µM and 5.58 µM.

Q: What about the GI50 [8] of the same molecule?
A: Its GI50 is 2.95 µM and 3.76 µM.

Q: What about the TGI [8] of the same molecule?
A: Its TGI is 9.52 µM and 11.8 µM.

Q: What about the GI50 [9] of the same molecule?
A: Its GI50 is 15.2 µM and 16.7 µM.

Q: And the TGI [9]?
A: Its TGI is 29.3 µM and 30.5 µM.

Q: What about the GI50 [10] of the same molecule?
A: The GI50 was 7.13 µM and 3.28 µM.

Q: And the TGI [10]?
A: Its TGI is 18.7 µM and 13.5 µM.

Q: What about the GI50 [11] of the same molecule?
A: Its GI50 is 14 µM and 12.6 µM.

Q: What about the TGI [11] of the same molecule?
A: Its TGI is 26.9 µM and 25.4 µM.

Q: And the GI50 [12]?
A: The GI50 was 2830 nM and 2300 nM.

Q: And the TGI [12]?
A: Its TGI is greater than 26.2 µM.

Q: And the GI50 [13]?
A: Its GI50 is 5.82 µM and 5.13 µM.

Q: What about the TGI [13] of the same molecule?
A: The TGI was 10.7 µM and 10.3 µM.

Q: What about the GI50 [14] of the same molecule?
A: Its GI50 is 14.5 µM and 13.9 µM.

Q: And the TGI [14]?
A: Its TGI is 27.6 µM and 27.5 µM.

Q: What about the GI50 [15] of the same molecule?
A: Its GI50 is 1790 nM and 1830 nM.

Q: What about the TGI [15] of the same molecule?
A: Its TGI is 3.46 µM and 3.54 µM.

Q: What about the GI50 [16] of the same molecule?
A: Its GI50 is 18.3 µM and 2.13 µM.

Q: And the TGI [16]?
A: The TGI was 50.9 µM and 5.64 µM.

Q: What about the GI50 [17] of the same molecule?
A: Its GI50 is 12.3 µM and 16.2 µM.

Q: And the TGI [17]?
A: Its TGI is 24.8 µM and 29.8 µM.

Q: And the GI50 [18]?
A: Its GI50 is 15.5 µM and 5.18 µM.

Q: What about the TGI [18] of the same molecule?
A: The TGI was 28.8 µM and 14.9 µM.

Q: And the GI50 [19]?
A: The GI50 was 13.6 µM and 15.6 µM.

Q: What about the TGI [19] of the same molecule?
A: The TGI was 26.4 µM and 29.5 µM.

Q: What about the GI50 [20] of the same molecule?
A: Its GI50 is 13.5 µM and 14 µM.

Q: What about the TGI [20] of the same molecule?
A: The TGI was 26.6 µM and 27.5 µM.

Q: What about the GI50 [21] of the same molecule?
A: The GI50 was 2410 nM and 3300 nM.

Q: And the TGI [21]?
A: The TGI was 6.12 µM and 9.23 µM.

Q: And the GI50 [22]?
A: The GI50 was 13.8 µM and 5.71 µM.

Q: What about the TGI [22] of the same molecule?
A: The TGI was 26.6 µM and 13 µM.

Q: And the GI50 [23]?
A: Its GI50 is 14.3 µM and 12.3 µM.

Q: And the TGI [23]?
A: The TGI was 29.5 µM and 24.9 µM.

Q: What about the GI50 [24] of the same molecule?
A: Its GI50 is 13 µM and 10.7 µM.

Q: What about the TGI [24] of the same molecule?
A: The TGI was 31.4 µM and 26.6 µM.

Q: And the GI50 [25]?
A: Its GI50 is 6.28 µM and 8.07 µM.

Q: And the TGI [25]?
A: The TGI was 18 µM and 21.8 µM.

Q: And the GI50 [26]?
A: Its GI50 is 11.1 µM and 12.2 µM.

Q: What about the TGI [26] of the same molecule?
A: The TGI was 24.7 µM and 27.7 µM.

Q: And the GI50 [27]?
A: The GI50 was 13.9 µM and 15.9 µM.

Q: What about the TGI [27] of the same molecule?
A: Its TGI is 26.9 µM and 29.4 µM.

Q: What about the GI50 [28] of the same molecule?
A: The GI50 was 16.4 µM and 11.8 µM.

Q: And the TGI [28]?
A: Its TGI is 32.1 µM and 25.4 µM.

Q: And the GI50 [29]?
A: The GI50 was 9.07 µM and 3.2 µM.

Q: What about the TGI [29] of the same molecule?
A: The TGI was 48.4 µM and > 33.1 µM.
